Columns and labels:
Wild type mice = assay: Survival after hFIX DNA-LNP dosing, with or without oral JAK inhibitors (Example 3); format: in vivo, mouse; settings: 30 minutes prior to and days 1, 2, 3 post 2.5 mpk hFIX DNA-LNP (bCKK-E12 LNP), followed out to 30 days, vs untreated
Procedure: FIG. 6 illustrates survival of WT mice dosed systemically with 2.5 mpk (50 μg) of human factor IX (hFIX) transgene-encoding plasmid DNA encapsulated in lipid nanoparticles; and either untreated or treated with ruxolitinib or baricitinib orally 30 minutes prior to, and on days 1, 2, and 3 post systemic dosing with hFIX transgene encoding plasmid DNA encapsulated in lipid nanoparticles.
Wild type mice were untreated, or treated (n=5 per group) with JAK inhibitors ruxolitinib or baricitinib orally 30 minutes prior to, and days 1, 2, and 3 post systemic dosing with 2.5 mpk (50 μg) of human factor IX (hFIX) transgene-encoding plasmid DNA encapsulated in lipid nanoparticles (DNA-LNP). The LNP used in the study was formulated with bCKK-E12. Survival of mice in each group was followed out to 30 days (FIG. 6).

Wild type C57BL/6 mice = assay: Transgenic hFIX protein in blood plasma by ELISA one week post-DNA-LNP, anti-IFNAR and/or baricitinib (Example 4); format: in vivo, mouse; settings: 2.5 mpk hFIX DNA-LNP (bCKK-E12) IV; anti-IFNAR 15 mpk IP 3 hours prior; baricitinib oral 90 minutes prior and daily days 1-6; one week post-dosing
Procedure: FIG. 7 illustrates FIX protein levels in blood plasma of mice not treated; or treated orally with baricitinib (“Bar”) 90 minutes prior to DNA-LNP dosing, and then daily on days 1-6 post-DNA-LNP dosing. Transgenic hFIX protein in blood plasma of surviving mice was measured by ELISA one-week post-DNA-LNP dosing.
Wild type C57BL/6 mice were untreated, or treated (n=5 per group) once IP with 15 mpk anti-mouse IFNAR blocking antibody (“anti-IFNAR”; clone MAR1-5A3, described in Dunn et al., Nat Immunol. 2005 July; 6(7):722-9) 3 hours prior to systemically (IV tail injections) dosing with 2.5 mpk (50 μg) of human factor IX (hFIX) transgene-encoding plasmid DNA encapsulated in lipid nanoparticles (DNA-LNP). The LNP used in the study was formulated with bCKK-E12. Mice were treated or not treated with the oral JAK inhibitor baricitinib (“Bar”) 90 minutes prior to DNA-LNP dosing, and then daily on days 1-6 post-DNA-LNP dosing. Transgenic hFIX protein in blood plasma of surviving mice was measured by ELISA one-week post-DNA-LNP dosing (FIG. 7).

Compound | survival of mice dosed with DNA-LNP (Wild type mice) | DNA-LNP transgene efficacy (hFIX protein in blood plasma, ELISA) (Wild type C57BL/6 mice)
N#CC[C@H](C1CCCC1)n1cc(-c2[nH]cnc3nccc2-3)cn1 [Ruxolitinib] | dramatically improved survival | 
Baricitinib | dramatically improved survival | did not boost transgene efficacy

Reference: patent US20250302990A1, “ENHANCING NON-VIRAL DNA DELIVERY AND EXPRESSION” (Spark Therapeutics, Inc., priority 2022, published 2025)
